From patent US10624949B1, “Methods for treating diseases related to the wnt pathway” (priority 2015, dated 2020)
“Also recorded” adds a separate entry of the source.

Assays:
RVFV MP12-GFP [1] = test: microbe, parasite or virus in culture; assay type: cell-based, Rift Valley fever virus; settings: for inhibition at 10 µM: Rift Valley fever virus, Hepatocyte, read-out: inhibition of RVFV MP12-GFP infection
VacV = assay type: cell-based, Vaccinia virus
VSV [2] = assay type: cell-based, Vesicular Stomatitis virus
RVFV MP12 = assay type: cell-based, Rift Valley fever virus
wild-type RVFV = assay type: cell-based, Rift Valley fever virus
[3] = system: Wnt3A-induced β-catenin luc reporter expression; assay type: cell-based, human
[4] = system: RVFV MP12-induced β-catenin transcriptional activity; assay type: cell-based, human
RVFV MP12-GFP [5] = assay type: cell-based, Rift Valley fever virus
CEV = assay type: cell-based, California encephalitis virus
LCV = assay type: cell-based, La Crosse virus
[6] = system: cellular models of cancer survival; settings: preclinical studies; cited from earlier work
RVFV MP12-GFP [7] = assay type: cell-based, Rift Valley fever virus; remark: listed apart in the source
VSV [8] = assay type: cell-based, Vesicular Stomatitis virus; remark: listed apart in the source
[9] = system: wild-type RVFV strain ZH-501; assay type: cell-based, Rift Valley fever virus

Molecule | infection of RVFV MP12-GFP (relative percent infection) (RVFV MP12-GFP [1]) | infection of VacV (relative percent infection) (VacV) | infection of VSV (relative percent infection) (VSV [2]) | Wnt3A-induced β-catenin luc reporter activity [3] | RVFV MP12-induced β-catenin reporter activity [4] | RVFV MP12-GFP infection, inhibitor 1 hour prior to and during initial infection, removed after 3 hours (pre-treat) (RVFV MP12-GFP [5]) | RVFV MP12-GFP infection, inhibitor added 1 hpi (post-treat) (RVFV MP12-GFP [5]) | other results
Cc1cc(/C=C2\SC(=O)N(c3ccccc3)C2=O)c(C)n1-c1cccnc1 [iCRT-14, (5Z)-5-[(2,5-dimethyl-1-pyridin-3-ylpyrrol-3-yl)methylidene]-3-phenyl-1,3-thiazolidine-2,4-dione] | reduced | did not diminish | did not diminish | inhibited | inhibited | little to no effect | significantly inhibit | RVFV MP12 viral titers by plaque assay (RVFV MP12): significant decrease; wild-type RVFV viral titers by plaque assay (wild-type RVFV): significant decrease
CO/C1=C\C(C)=C\[C@@H](C)[C@@H](O)[C@@H](C)C/C(C)=C/C=C/[C@H](OC)[C@@H]([C@@H](C)[C@@H](O)[C@H](C)[C@@]2(O)C[C@@H](O)[C@H](C)[C@@H](C(C)C)O2)OC1=O [BAF] | – | – | – | – | blocked | – | – | –
WIF-1 | unable to reduce infection | unable to reduce infection | unable to reduce infection | dose-dependent reduction | no effect | no effect | no effect | –
CN(C)c1ccc(/C=C/c2c(F)cccc2F)cc1 [Wnt XII, (E)-4-(2,6-difluorostyryl)-N,N-dimethylaniline] | reduced | did not diminish | did not diminish | inhibited | inhibited | little to no effect | significantly inhibit | –
O=C1Nc2ccccc2C12OCC1(CO2)COC2(OC1)C(=O)Nc1ccccc12 (stereo not drawn) [JW67, trispiro[3H-indole-3,2′-[1,3]dioxane-5′,5″-[1,3]dioxane-2″,3′″-[3H]indole]-2,2′″(1H,1′″H)-dione] | – | none of the inhibitors that stabilized the DC affected | none of the inhibitors that stabilized the DC affected | inhibited | inhibited | little to no effect | significantly inhibit | inhibition at 10 µM (RVFV MP12-GFP [1]): > 50%; RVFV MP12 viral titers by plaque assay (RVFV MP12): significant decrease; wild-type RVFV viral titers by plaque assay (wild-type RVFV): significant decrease; also recorded: significantly reduced; CEV infection / viral titers by plaque assay (CEV): significantly reduced; LCV infection / viral titers by plaque assay (LCV): significantly reduced
COc1ccc(C2(CNC(=O)c3ccc(NC(=O)c4ccco4)cc3)CCOCC2)cc1 [JW55, N-[4-[[4-(4-methoxyphenyl)oxan-4-yl]methylcarbamoyl]phenyl]furan-2-carboxamide] | – | – | – | – | – | – | – | efficacy in cellular models of cancer survival [6]: demonstrated efficacy
Cc1cc([N+](=O)[O-])ccc1NS(=O)(=O)c1cc(Cl)ccc1Cl [FH535, 2,5-dichloro-N-(2-methyl-4-nitrophenyl)benzenesulfonamide] | reduced | did not diminish | did not diminish | inhibited | inhibited | little to no effect | significantly inhibit | –
O=C(Nc1cccc2cccnc12)c1ccc(N2C(=O)[C@@H]3[C@H](C2=O)[C@@H]2C=C[C@H]3C2)cc1 [Endo-IWR-1, 4-[(3aR,4S,7R,7aS)-1,3-dioxo-1,3,3a,4,7,7a-hexahydro-2H-4,7-methanoisoindol-2-yl]-N-(quinolin-8-yl)benzamide] | – | – | – | inhibited | inhibited | little to no effect | significantly inhibit | inhibition at 10 µM (RVFV MP12-GFP [1]): > 50%
O=c1nc(-c2ccc(C(F)(F)F)cc2)[nH]c2c1CSCC2 [XAV939, 2-[4-(trifluoromethyl)phenyl]-1,5,7,8-tetrahydrothiopyrano[4,3-d]pyrimidin-4-one] | – | – | – | – | – | – | – | efficacy in cellular models of cancer survival [6]: demonstrated efficacy
DKK-1 (protein, UniProt O94907 32-266, looked up) Dickkopf-related protein 1: TLNSVLNSNAIKNLPPPLGGAAGHPGSAVSAAPGILYPGGNKYQTIDNYQPYPCAEDEECGTDEYCASPTRGGDAGVQICLACRKRRKRCMRHAMCCPGNYCKNGICVSSDQNHFRGEIEETITESFGNDHSTLDGYSRRTTLSSKMYHTKGQEGSVCLRSSDCASGLCCARHFWSKICKPVLKEGQVCTKHRRKGSHGLEIFQRCYCGEGLSCRIQKDHHQASNSSRLHTCQRH | unable to reduce infection | unable to reduce infection | unable to reduce infection | dose-dependent reduction | no effect | no effect | no effect | –
Wnt3A (protein, UniProt P56704 19-352, looked up) Protein Wnt-3a: SYPIWWSLAVGPQYSSLGSQPILCASIPGLVPKQLRFCRNYVEIMPSVAEGIKIGIQECQHQFRGRRWNCTTVHDSLAIFGPVLDKATRESAFVHAIASAGVAFAVTRSCAEGTAAICGCSSRHQGSPGKGWKWGGCSEDIEFGGMVSREFADARENRPDARSAMNRHNNEAGRQAIASHMHLKCKCHGLSGSCEVKTCWWSQPDFRAIGDFLKDKYDSASEMVVEKHRESRGWVETLRPRYTYFKVPTERDLVYYEASPNFCEPNPETGSFGTRDRTCNVSSHGIDGCDLLCCGRGHNARAERRREKCRCVFHWCCYVSCQECTRVYDVHTCK | – | – | – | – | – | – | – | RVFV MP12-GFP viral infection after Wnt3A pre-treatment (RVFV MP12-GFP [7]): significantly enhanced; increase in RVFV MP12-GFP infection (RVFV MP12-GFP [7]): greater than 4.5 fold; VSV infection after Wnt3A pre-treatment (VSV [8]): remained unchanged; wild-type RVFV infection (number of plaques) [9]: enhanced
